Assay results as given in publication doi:10.1101/2025.03.27.645620v1 (biorxiv, 2025).
Like-named read-outs stand apart in the source and are kept apart here. Blank lines part the entries; values can stand above or below the compound they belong to.

What was measured:
murine splenocytes = test: cells; parameters: species or system mouse splenocytes; conditions: Mus musculus, Splenocyte, 24 h
human PBMCs = test: cells; conditions: PBMC, 24 h
hSTING-WT = test: cells; parameters: species or system THP1; conditions: Homo sapiens, THP-1, 20 h, read-out: SB 11285 EC50 (µM)
hSTING AQ = test: cells; parameters: species or system THP1; conditions: Homo sapiens, THP-1, 20 h, read-out: SB 11285 EC50 (µM)
mSTING = test: cells; parameters: species or system THP1; conditions: Homo sapiens, THP-1, 20 h, read-out: SB 11285 EC50 (µM)
WT-hSTING-CTT = WT-hSTING-CTT (Homo sapiens, UniProt Q86WV6, H232R); test: surface plasmon resonance; assay type: binding; conditions: labelled compound; biotin-tagged SB […] used
Sequence of WT-hSTING-CTT (Q86WV6 139-379 H232R): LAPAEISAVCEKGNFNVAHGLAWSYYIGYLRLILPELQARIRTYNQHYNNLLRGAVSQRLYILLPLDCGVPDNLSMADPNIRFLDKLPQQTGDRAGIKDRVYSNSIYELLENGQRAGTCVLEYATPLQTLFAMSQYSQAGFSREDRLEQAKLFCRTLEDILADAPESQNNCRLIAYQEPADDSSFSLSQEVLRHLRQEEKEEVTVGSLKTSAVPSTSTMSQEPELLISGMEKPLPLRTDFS

EC50 (murine splenocytes; read-out: SB 11285 EC50 (μM), IFN-α): 0.2 ± 0.1 µM
EC50 (murine splenocytes; read-out: SB 11285 EC50 (μM), IL-18): 0.02 ± 0.02 µM
EC50 (murine splenocytes; read-out: SB 11285 EC50 (μM), IL-31): 0.006 ± 0.003 µM
EC50 (murine splenocytes; read-out: SB 11285 EC50 (μM), IP-10): 0.03 ± 0.02 µM
EC50 (murine splenocytes; read-out: SB 11285 EC50 (μM), TNF-α): 0.04 ± 0.06 µM
EC50 (hSTING-WT): 0.008 µM
EC50 (hSTING AQ): 0.43 µM
EC50 (mSTING): 0.15 µM
Compound: NC1CC2CCC(C1)C2O (mixture of isomers) [SB 11285]
EC50 (human PBMCs; read-out: SB 11285 EC50(μM), GM-CSF): 0.4 ± 0.3 µM
EC50 (human PBMCs; read-out: SB 11285 EC50(μM), IFN-α): 0.9 ± 0.7 µM
EC50 (human PBMCs; read-out: SB 11285 EC50(μM), IFN-β): 0.3 ± 0.2 µM
EC50 (human PBMCs; read-out: SB 11285 EC50(μM), IFN-γ): 1 ± 0.4 µM
EC50 (human PBMCs; read-out: SB 11285 EC50(μM), IL-10): 0.03 ± 0.03 µM
EC50 (human PBMCs; read-out: SB 11285 EC50(μM), IL-12p70): 0.8 ± 0.3 µM
EC50 (human PBMCs; read-out: SB 11285 EC50(μM), IL-18): 0.7 ± 0.1 µM
EC50 (human PBMCs; read-out: SB 11285 EC50(μM), MIP-1α): 0.05 ± 0.04 µM
EC50 (human PBMCs; read-out: SB 11285 EC50(μM), MIP-1β): 0.06 ± 0.09 µM
EC50 (human PBMCs; read-out: SB 11285 EC50(μM), RANTES): 0.08 ± 0.06 µM

Compound: Nc1ncnc2c1ncn2[C@@H]1O[C@@H]2COP(O)(=S)O[C@@H]3[C@H](O)[C@@H](COP(O)(=S)O[C@H]2[C@H]1O)O[C@H]3n1cnc2c(N)ncnc21 (stereo partly shown) [ADU-S100]
EC50 (murine splenocytes; read-out: EC50 (μM), CXCL1): 1.6 ± 0.9 µM
EC50 (murine splenocytes; read-out: EC50 (μM), IFN-α): > 10 µM
EC50 (murine splenocytes; read-out: EC50 (μM), IL-6): 1.7 ± 1.7 µM
EC50 (murine splenocytes; read-out: EC50 (μM), IL-17A): 0.3 ± 0.2 µM
EC50 (murine splenocytes; read-out: EC50 (μM), IL-18): 0.6 ± 0.4 µM
EC50 (murine splenocytes; read-out: EC50 (μM), MIP-1α): 0.5 ± 0.4 µM
EC50 (murine splenocytes; read-out: EC50 (μM), MIP-1β): 0.7 ± 0.3 µM
EC50 (murine splenocytes; read-out: EC50 (μM), RANTES): 0.1 ± 0.1 µM
EC50 (murine splenocytes; read-out: EC50 (μM), TNF-α): 1.4 ± 0.5 µM
EC50 (human PBMCs; read-out: EC50(μM), GM-CSF): 2.9 ± 0.4 µM
EC50 (human PBMCs; read-out: EC50(μM), IFN-α): 2.6 ± 2.9 µM
EC50 (human PBMCs; read-out: EC50(μM), IFN-β): > 10 µM
EC50 (human PBMCs; read-out: EC50(μM), IL-6): 2.3 ± 0.6 µM
EC50 (human PBMCs; read-out: EC50(μM), IL-10): 0.8 ± 0.6 µM
EC50 (human PBMCs; read-out: EC50(μM), IP-10): 0.4 ± 0.3 µM
EC50 (human PBMCs; read-out: EC50(μM), MIP-1α): 1.1 ± 0.6 µM
EC50 (human PBMCs; read-out: EC50(μM), MIP-1β): 1.2 ± 0.8 µM
EC50 (human PBMCs; read-out: EC50(μM), RANTES): 0.7 ± 0.5 µM

Kd (WT-hSTING-CTT): ~122 nM
Compound: biotin-tagged SB 11285
